Experimental findings from ChEMBL document CHEMBL4145465, “Design, synthesis and biological evaluation of novel ring-opened cromakalim analogues with relaxant effects on vascular and respiratory smooth muscles and as stimulators of elastin synthesis” (Eur J Med Chem, 2018) are described below.

Assay [1] deals with Thoracic aorta. The assay can be described thus: Vasorelaxing activity in Wistar rat endothelium-intact thoracic aorta ring assessed as reduction in 30 mM KCl-induced contraction after 15 mins. The conditions noted are these: 0.25 h.
Assay [2] concerns Thoracic aorta. In words: Vasorelaxing activity in Wistar rat endothelium-intact thoracic aorta ring assessed as reduction in 30 mM KCl-induced contraction at 300 uM after 15 mins relative to DMSO. To be noted: 0.25 h.

SMILES strings stand for the structures.

As a reminder, the EC50 is the concentration at which the effect is half-maximal. One may read the Emax as the greatest response seen or fitted, relative to the assay's reference. Turning to `COc1ccc(OC)c(CNC(=O)N(C)S(=O)(=O)c2ccc(C)cc2)c1`, the EC50 in assay [1] was determined as 20.9 µM. Besides, in assay [2], the Emax worked out at 92.7%.

Consider `COc1ccc(OC)c(CNC(=O)NS(=O)(=O)c2ccccc2)c1`, for which the EC50 in assay [1] is over 300 µM. Besides, the Emax in assay [2] is -20.3%.

As for `Cc1ccc(OCc2ccccc2)c(C(C)NC(=O)N(C)S(=O)(=O)c2ccccc2)c1` (configuration not stated), in assay [1], the EC50 was 68.2 µM. Also, the Emax in assay [2] was determined as 86.1%.

For the molecule `COc1ccc(OC)c(CNC(=O)N(C)S(=O)(=O)c2ccc(Cl)cc2)c1`, the EC50 in assay [1] stood at 18.2 µM. The Emax in assay [2] was determined as 93.6%.

For the molecule `CCOc1ccc(Cl)cc1C(C)NC(=O)NS(=O)(=O)c1ccccc1` (configuration not stated), the EC50 in assay [1] was over 300 µM. In addition, the Emax in assay [2] is 15.8%.

Turning to `COc1ccc(OC)c(CNC(=O)NS(=O)(=O)c2ccc(C)cc2)c1`, in assay [1], the 50% effective concentration (EC50) was over 300 µM. Further, the Emax in assay [2] is -14.5%.

As for `COc1ccc(OC)c(CNC(=O)NS(=O)(=O)c2ccc(Cl)cc2)c1`, in assay [1], the EC50 was over 300 µM. For the same molecule, the Emax in assay [2] was -28%.

Consider `Cc1ccc(S(=O)(=O)NC(=O)NC(C)c2cc(Br)ccc2OC(C)C)cc1` (configuration not stated), for which the EC50 in assay [1] stood at 61.8 µM. Besides, the Emax in assay [2] is 93.2%.

Consider `CC(NC(=O)N(C)S(=O)(=O)c1ccc(Cl)cc1)c1cc(Br)ccc1OCc1ccccc1` (configuration not stated), for which the concentration for a half-maximal effect (EC50) in assay [1] was determined as 146 µM. Besides, the Emax in assay [2] was 97.3%.

For the molecule `CC(C)Oc1ccc(Br)cc1C(C)NC(=O)N(C)S(=O)(=O)c1ccccc1` (racemic), in assay [1], the EC50 came out at 32.1 µM. Further, the Emax in assay [2] stood at 81.5%.

With `COc1ccc(Cl)cc1C(C)NC(=O)NS(=O)(=O)c1ccc(C)cc1` (racemic), the EC50 in assay [1] is over 300 µM. In assay [2], the Emax turned out to be 36.6%.

Regarding `CCOc1ccc(Cl)cc1C(C)NC(=O)N(C)S(=O)(=O)c1ccc(Cl)cc1` (racemic), the EC50 in assay [1] amounted to 14.6 µM. For the same molecule, the Emax in assay [2] is 105%.

For the molecule `COc1ccc(Br)cc1C(C)NC(=O)NS(=O)(=O)c1ccc(Cl)cc1` (racemic), in assay [1], the EC50 came to 80.9 µM. In assay [2], the Emax was 82.6%.

As for `CC(NC(=O)NS(=O)(=O)c1ccccc1)c1cc(Br)ccc1OCc1ccccc1` (racemic), the EC50 in assay [1] came out at 130 µM. Also, the Emax in assay [2] came out at 92.3%.

Regarding `COc1ccc(Cl)cc1C(C)NC(=O)N(C)S(=O)(=O)c1ccc(C)cc1` (racemic), in assay [1], the EC50 came out at 13.8 µM. Also, the Emax in assay [2] was found to be 107%.

`CCOc1ccc(Cl)cc1C(C)NC(=O)NS(=O)(=O)c1ccc(C)cc1` (racemic): the EC50 in assay [1] is over 300 µM. In assay [2], the Emax was 45.5%.

On to `CCOc1ccc(Br)cc1C(C)NC(=O)NS(=O)(=O)c1ccc(C)cc1` (racemic), for which the EC50 in assay [1] was over 300 µM. Also, in assay [2], the Emax came to 62.2%.

Take `CCOc1ccc(F)cc1C(C)NC(=O)NS(=O)(=O)c1ccc(C)cc1` (racemic): the EC50 in assay [1] was over 300 µM. Besides, the Emax in assay [2] is 26.2%.

As to `CC(C)Oc1ccc(Br)cc1C(C)NC(=O)N(C)S(=O)(=O)c1ccc(Cl)cc1` (racemic), the EC50 in assay [1] was determined as 43.2 µM. In assay [2], the Emax was determined as 93.7%.

On to `Cc1ccc(S(=O)(=O)NC(=O)NC(C)c2ccccc2OCc2ccccc2)cc1` (racemic), for which the EC50 in assay [1] is over 200 µM. Further, in assay [2], the Emax stood at 84.7%.

For the molecule `COc1ccc(Br)cc1C(C)NC(=O)NS(=O)(=O)c1ccccc1` (racemic), the EC50 in assay [1] is over 300 µM. Also, the Emax in assay [2] was found to be 45.5%.

Take `COc1ccc(F)cc1C(C)NC(=O)NS(=O)(=O)c1ccc(Cl)cc1` (racemic): the EC50 in assay [1] was over 300 µM. In addition, in assay [2], the Emax is 54.7%.

Regarding `CC(C)Oc1ccc(Br)cc1C(C)NC(=O)NS(=O)(=O)c1ccccc1` (racemic), the EC50 in assay [1] was 143 µM. In addition, in assay [2], the Emax stood at 73.2%.

On to `Cc1ccc(S(=O)(=O)N(C)C(=O)NC(C)c2cc(Br)ccc2OCc2ccccc2)cc1` (racemic), for which the concentration giving a half-maximal response (EC50) in assay [1] is 67.1 µM. Besides, the Emax in assay [2] is 47.9%.

For `CCOc1ccc(Br)cc1C(C)NC(=O)N(C)S(=O)(=O)c1ccc(Cl)cc1` (racemic), the EC50 in assay [1] is 55.7 µM. Further, the Emax in assay [2] was determined as 71%.

As for `Cc1ccc(OCc2ccccc2)c(C(C)NC(=O)NS(=O)(=O)c2ccccc2)c1` (racemic), the 50% effective concentration (EC50) in assay [1] was over 200 µM. The Emax in assay [2] amounted to 90.7%.

As for `CCOc1ccc(Cl)cc1C(C)NC(=O)NS(=O)(=O)c1ccc(Cl)cc1` (racemic), the concentration for a half-maximal effect (EC50) in assay [1] came out at 281 µM. Further, the Emax in assay [2] turned out to be 69.7%.

`CC(NC(=O)NS(=O)(=O)c1ccccc1)c1ccccc1OCc1ccccc1` (racemic): the EC50 in assay [1] was over 200 µM. Also, the Emax in assay [2] amounted to 59%.

As for `CCOc1ccc(Cl)cc1C(C)NC(=O)N(C)S(=O)(=O)c1ccc(C)cc1` (racemic), in assay [1], the EC50 was found to be 12.2 µM. Besides, the Emax in assay [2] was 106%.

In the case of `CC(C)Oc1ccc(Br)cc1C(C)NC(=O)NS(=O)(=O)c1ccc(Cl)cc1` (racemic), the 50% effective concentration (EC50) in assay [1] amounted to 122 µM. Further, the Emax in assay [2] was found to be 100%.

On to `Cc1ccc(S(=O)(=O)N(C)C(=O)NC(C)c2cc(Br)ccc2OC(C)C)cc1` (racemic), for which, in assay [1], the EC50 stood at 34.7 µM. In addition, in assay [2], the Emax was determined as 102%.

In the case of `COc1ccc(Cl)cc1C(C)NC(=O)NS(=O)(=O)c1ccc(Cl)cc1` (racemic), in assay [1], the EC50 is over 300 µM. In addition, in assay [2], the Emax came to 40.9%.

In the case of `CC(NC(=O)NS(=O)(=O)c1ccc(Cl)cc1)c1ccccc1OCc1ccccc1` (racemic), the EC50 in assay [1] came to 157 µM. For the same molecule, the Emax in assay [2] worked out at 103%.

Take `COc1ccc(Cl)cc1C(C)NC(=O)N(C)S(=O)(=O)c1ccc(Cl)cc1` (racemic): the EC50 in assay [1] is 20 µM. Besides, the Emax in assay [2] stood at 103%.

For `COc1ccc(Br)cc1C(C)NC(=O)NS(=O)(=O)c1ccc(C)cc1` (racemic), in assay [1], the EC50 was over 300 µM. The Emax in assay [2] came out at 67.6%.

As for `Cc1ccc(S(=O)(=O)NC(=O)NC(C)c2cc(Br)ccc2OCc2ccccc2)cc1` (racemic), in assay [1], the EC50 amounted to 138 µM. Moreover, the Emax in assay [2] is 92.5%.

On to `CCOc1ccc(Br)cc1C(C)NC(=O)NS(=O)(=O)c1ccc(Cl)cc1` (racemic), for which the EC50 in assay [1] came to 171 µM. Further, in assay [2], the Emax is 77.6%.

For `CCOc1ccc(F)cc1C(C)NC(=O)NS(=O)(=O)c1ccccc1` (racemic), the EC50 in assay [1] is over 300 µM. Also, the Emax in assay [2] worked out at 46.4%.

Turning to `CCOc1ccc(Br)cc1C(C)NC(=O)NS(=O)(=O)c1ccccc1` (racemic), the EC50 in assay [1] is over 300 µM. Also, the Emax in assay [2] amounted to 35.9%.

In the case of `CC(NC(=O)N(C)S(=O)(=O)c1ccccc1)c1cc(Br)ccc1OCc1ccccc1` (racemic), the EC50 in assay [1] is 60.3 µM. Moreover, in assay [2], the Emax came out at 56.8%.

With `Cc1ccc(S(=O)(=O)NC(=O)NC(C)c2cc(C)ccc2OCc2ccccc2)cc1` (racemic), in assay [1], the EC50 amounted to 91.9 µM. Moreover, the Emax in assay [2] was determined as 106%.

Regarding `CCOc1ccc(Br)cc1C(C)NC(=O)N(C)S(=O)(=O)c1ccc(C)cc1` (racemic), the EC50 in assay [1] stood at 28.6 µM. Moreover, the Emax in assay [2] is 90.8%.

`CCOc1ccc(F)cc1C(C)NC(=O)NS(=O)(=O)c1ccc(Cl)cc1` (racemic): in assay [1], the EC50 was over 300 µM. Moreover, the Emax in assay [2] worked out at 52.7%.

For `COc1ccc(Cl)cc1C(C)NC(=O)NS(=O)(=O)c1ccccc1` (racemic), the EC50 in assay [1] is over 300 µM. Besides, the Emax in assay [2] stood at 16.4%.

For `COc1ccc(F)cc1C(C)NC(=O)NS(=O)(=O)c1ccc(C)cc1` (racemic), the EC50 in assay [1] is over 300 µM. Besides, in assay [2], the Emax was -4.5%.

`COc1ccc(F)cc1C(C)NC(=O)NS(=O)(=O)c1ccccc1` (racemic): the EC50 in assay [1] is over 300 µM. Moreover, the Emax in assay [2] worked out at 1.2%.
